ChEMBL document CHEMBL5303304, “EUbOPEN Chemogenomics Library - IncuCyte” (2023)

Assays:
Assay type in all cases: toxicity, cell-based
HEK-293T = assay: Incucyte cell viability with HEK293T; conditions: human, 10 µM, compound concentration 10 uM
Fibroblast = assay: Incucyte cell viability with human fibroblast; conditions: 10 µM, compound concentration 10 uM
U2OS = assay: Incucyte cell viability with U2OS; conditions: human, 10 µM, compound concentration 10 uM
Note: unitless GR value; below 1 slowed growth and below 0 cell loss.

COc1cnccc1Nc1nc(-c2nn(Cc3c(F)cc(OCCO)cc3F)c3ccccc23)ncc1OC
Growth Rate (HEK-293T; 0 h, replicate number 1): -1
Growth Rate (HEK-293T; 0 h, replicate number 2): -0.96
Growth Rate (HEK-293T; 6 h, replicate number 2): -0.05
Growth Rate (HEK-293T; 12 h, replicate number 2): -0.01
Growth Rate (HEK-293T; 18 h, replicate number 2): 0.13
Growth Rate (HEK-293T; 24 h, replicate number 2): 0.21
Growth Rate (Fibroblast; 6 h, replicate number 1): -0.29
Growth Rate (Fibroblast; 6 h, replicate number 2): 0.31
Growth Rate (Fibroblast; 12 h, replicate number 1): -0.23
Growth Rate (Fibroblast; 12 h, replicate number 2): 0.04
Growth Rate (Fibroblast; 18 h, replicate number 1): -0.14
Growth Rate (Fibroblast; 18 h, replicate number 2): -0.07
Growth Rate (Fibroblast; 24 h, replicate number 1): -0.14
Growth Rate (Fibroblast; 24 h, replicate number 2): -0.03
Growth Rate (U2OS; 0 h, replicate number 1): -1
Growth Rate (U2OS; 0 h, replicate number 2): -0.09
Growth Rate (U2OS; 6 h, replicate number 1): -0.05
Growth Rate (U2OS; 6 h, replicate number 2): -0.04
Growth Rate (U2OS; 12 h, replicate number 1): -0.2
Growth Rate (U2OS; 12 h, replicate number 2): 0.06
Growth Rate (U2OS; 18 h, replicate number 1): -0.22
Growth Rate (U2OS; 18 h, replicate number 2): 0.21
Growth Rate (U2OS; 24 h, replicate number 1): -0.17
Growth Rate (U2OS; 24 h, replicate number 2): 0.09

COCCNc1cc(NC(=O)N2CCCc3cc(CN4CCOCC4=O)c(C=O)nc32)ncc1C#N
Growth Rate (HEK-293T; 0 h, replicate number 2): 0.81
Growth Rate (HEK-293T; 6 h, replicate number 1): 0.42
Growth Rate (Fibroblast; 6 h, replicate number 1): 0.86
Growth Rate (Fibroblast; 6 h, replicate number 2): -1
Growth Rate (Fibroblast; 12 h, replicate number 1): -1
Growth Rate (Fibroblast; 12 h, replicate number 2): 0.58
Growth Rate (Fibroblast; 18 h, replicate number 1): -0.07
Growth Rate (Fibroblast; 24 h, replicate number 1): 0.7
Growth Rate (Fibroblast; 24 h, replicate number 2): 0.95
Growth Rate (U2OS; 0 h, replicate number 1): -0.03
Growth Rate (U2OS; 6 h, replicate number 1): 0.95

COc1cc(/C=C(\C#N)C(=O)Nc2nnc(C(F)(F)F)s2)ccc1OCc1ccc(C(F)(F)F)cc1C(F)(F)F
Growth Rate (HEK-293T; 0 h, replicate number 1): 0.87
Growth Rate (HEK-293T; 6 h, replicate number 1): 0.32
Growth Rate (HEK-293T; 6 h, replicate number 2): 0.92
Growth Rate (HEK-293T; 12 h, replicate number 1): 0.72
Growth Rate (HEK-293T; 12 h, replicate number 2): 0.82
Growth Rate (HEK-293T; 18 h, replicate number 1): 0.91
Growth Rate (HEK-293T; 24 h, replicate number 1): 1
Growth Rate (HEK-293T; 24 h, replicate number 2): 0.98
Growth Rate (Fibroblast; 0 h, replicate number 1): -0.12
Growth Rate (Fibroblast; 12 h, replicate number 1): -0.69
Growth Rate (Fibroblast; 12 h, replicate number 2): 0.17
Growth Rate (Fibroblast; 18 h, replicate number 1): 0.9
Growth Rate (Fibroblast; 18 h, replicate number 2): 0.84
Growth Rate (Fibroblast; 24 h, replicate number 1): 0.17
Growth Rate (Fibroblast; 24 h, replicate number 2): 0.86
Growth Rate (U2OS; 0 h, replicate number 1): 0.49
Growth Rate (U2OS; 6 h, replicate number 1): 0.84
Growth Rate (U2OS; 6 h, replicate number 2): 0.63
Growth Rate (U2OS; 12 h, replicate number 2): 0.81
Growth Rate (U2OS; 18 h, replicate number 2): 0.85
Growth Rate (U2OS; 24 h, replicate number 1): 0.97
Growth Rate (U2OS; 24 h, replicate number 2): 0.87

C=CC(=O)Nc1cccc(C(=O)Nc2ccc(Nc3cc(-c4c(-c5ccc(F)cc5)nc(SC)n4C)ccn3)cc2)c1
Growth Rate (HEK-293T; 6 h, replicate number 1): 0.54
Growth Rate (HEK-293T; 6 h, replicate number 2): 0.39
Growth Rate (HEK-293T; 12 h, replicate number 1): 0.55
Growth Rate (HEK-293T; 12 h, replicate number 2): 0.34
Growth Rate (HEK-293T; 18 h, replicate number 1): 0.47
Growth Rate (HEK-293T; 18 h, replicate number 2): 0.46
Growth Rate (HEK-293T; 24 h, replicate number 1): 0.57
Growth Rate (Fibroblast; 0 h, replicate number 1): -0.95
Growth Rate (Fibroblast; 0 h, replicate number 2): 0.71
Growth Rate (U2OS; 24 h, replicate number 2): 0.97

Cc1cccc(-c2nn(C(=S)Nc3ccccc3)cc2-c2ccnc3ccccc23)n1
Growth Rate (HEK-293T; 0 h, replicate number 1): 0.78
Growth Rate (Fibroblast; 0 h, replicate number 2): -1
Growth Rate (Fibroblast; 6 h, replicate number 1): 1
Growth Rate (Fibroblast; 12 h, replicate number 1): -1
Growth Rate (U2OS; 0 h, replicate number 2): -0.94
Growth Rate (U2OS; 6 h, replicate number 1): 0.88
Growth Rate (U2OS; 6 h, replicate number 2): 0.81
Growth Rate (U2OS; 18 h, replicate number 2): 0.98
Growth Rate (U2OS; 24 h, replicate number 2): 0.88

Cc1nn(-c2ccccc2)c(Nc2ccccc2C(=O)O)c1-c1cc2nccnc2c(F)c1F
Growth Rate (HEK-293T; 0 h, replicate number 1): 0.45
Growth Rate (HEK-293T; 0 h, replicate number 2): -0.55
Growth Rate (Fibroblast; 0 h, replicate number 2): -0.36
Growth Rate (Fibroblast; 6 h, replicate number 1): 0.39
Growth Rate (Fibroblast; 6 h, replicate number 2): -0.17
Growth Rate (Fibroblast; 18 h, replicate number 2): 0.57
Growth Rate (Fibroblast; 24 h, replicate number 2): 0.79
Growth Rate (U2OS; 6 h, replicate number 1): 0.75
Growth Rate (U2OS; 12 h, replicate number 1): 1

N=C(N)NCCC[C@@H](NC(=O)C(c1ccccc1)c1ccccc1)C(=O)NCc1ccc(CNC(N)=O)cc1.O=C(O)C(F)(F)F
Growth Rate (HEK-293T; 0 h, replicate number 1): 0.56
Growth Rate (HEK-293T; 12 h, replicate number 2): 0.76
Growth Rate (HEK-293T; 18 h, replicate number 2): 0.96
Growth Rate (HEK-293T; 24 h, replicate number 2): 0.9
Growth Rate (Fibroblast; 0 h, replicate number 1): -1
Growth Rate (Fibroblast; 0 h, replicate number 2): 0.49
Growth Rate (Fibroblast; 6 h, replicate number 1): 0.82
Growth Rate (Fibroblast; 12 h, replicate number 2): 0.86
Growth Rate (Fibroblast; 18 h, replicate number 2): 0.94
Growth Rate (Fibroblast; 24 h, replicate number 2): 0.91
Growth Rate (U2OS; 0 h, replicate number 1): 0.07
Growth Rate (U2OS; 6 h, replicate number 1): 0.44
Growth Rate (U2OS; 12 h, replicate number 1): 0.7
Growth Rate (U2OS; 12 h, replicate number 2): 0.87
Growth Rate (U2OS; 18 h, replicate number 1): 0.92
Growth Rate (U2OS; 18 h, replicate number 2): 0.99
Growth Rate (U2OS; 24 h, replicate number 1): 0.86

CC(F)(F)CN1C(=O)c2[nH]nc(-c3cccc4[nH]c(=O)oc34)c2C1c1ccc(Oc2cc(C(F)(F)F)cc(C(F)(F)F)c2)cc1 (stereo not drawn)
Growth Rate (HEK-293T; 0 h, replicate number 1): 0.14
Growth Rate (HEK-293T; 0 h, replicate number 2): -0.56
Growth Rate (HEK-293T; 12 h, replicate number 2): 0.76
Growth Rate (HEK-293T; 18 h, replicate number 1): 0.83
Growth Rate (HEK-293T; 18 h, replicate number 2): 0.68
Growth Rate (HEK-293T; 24 h, replicate number 1): 0.78
Growth Rate (HEK-293T; 24 h, replicate number 2): 0.75
Growth Rate (Fibroblast; 0 h, replicate number 2): -0.97
Growth Rate (Fibroblast; 6 h, replicate number 1): 0.84
Growth Rate (Fibroblast; 18 h, replicate number 1): 0.98
Growth Rate (Fibroblast; 24 h, replicate number 1): 0.96
Growth Rate (U2OS; 24 h, replicate number 1): 0.88

CCCCCNC(=O)N1CCC(CN(Cc2ccc(Cl)cc2)Cc2ccc([N+](=O)[O-])s2)C1 (stereo not drawn) [SR9011]
Growth Rate (HEK-293T; 0 h, replicate number 2): -0.74
Growth Rate (HEK-293T; 6 h, replicate number 1): 0.47
Growth Rate (HEK-293T; 6 h, replicate number 2): 0.86
Growth Rate (HEK-293T; 12 h, replicate number 1): 0.42
Growth Rate (HEK-293T; 12 h, replicate number 2): 0.62
Growth Rate (HEK-293T; 18 h, replicate number 1): 0.51
Growth Rate (HEK-293T; 18 h, replicate number 2): 0.59
Growth Rate (HEK-293T; 24 h, replicate number 1): 0.54
Growth Rate (HEK-293T; 24 h, replicate number 2): 0.49
Growth Rate (Fibroblast; 6 h, replicate number 1): 0.11
Growth Rate (Fibroblast; 6 h, replicate number 2): -0.29
Growth Rate (Fibroblast; 12 h, replicate number 1): 0.48
Growth Rate (Fibroblast; 12 h, replicate number 2): 0.55
Growth Rate (Fibroblast; 18 h, replicate number 1): 0.55
Growth Rate (Fibroblast; 18 h, replicate number 2): 0.66
Growth Rate (Fibroblast; 24 h, replicate number 1): 0.54
Growth Rate (Fibroblast; 24 h, replicate number 2): 0.64
Growth Rate (U2OS; 0 h, replicate number 1): 0.35
Growth Rate (U2OS; 6 h, replicate number 1): 0.88
Growth Rate (U2OS; 6 h, replicate number 2): 0.94
Growth Rate (U2OS; 12 h, replicate number 1): 0.81
Growth Rate (U2OS; 12 h, replicate number 2): 0.86
Growth Rate (U2OS; 18 h, replicate number 1): 0.9
Growth Rate (U2OS; 18 h, replicate number 2): 0.94
Growth Rate (U2OS; 24 h, replicate number 1): 0.85
Growth Rate (U2OS; 24 h, replicate number 2): 0.83

CNc1nc(-c2ccc3c(N)n[nH]c3c2)cc(N2C[C@@H](C(=O)NC3CCCCC3)CC[C@H]2C)n1
Growth Rate (HEK-293T; 0 h, replicate number 1): -1
Growth Rate (HEK-293T; 0 h, replicate number 2): -0.02
Growth Rate (HEK-293T; 12 h, replicate number 1): 0.89
Growth Rate (HEK-293T; 12 h, replicate number 2): 0.66
Growth Rate (HEK-293T; 18 h, replicate number 1): 0.8
Growth Rate (HEK-293T; 18 h, replicate number 2): 0.55
Growth Rate (HEK-293T; 24 h, replicate number 1): 0.72
Growth Rate (HEK-293T; 24 h, replicate number 2): 0.55
Growth Rate (Fibroblast; 0 h, replicate number 1): -0.99
Growth Rate (Fibroblast; 12 h, replicate number 1): 0.62
Growth Rate (Fibroblast; 12 h, replicate number 2): 0.96
Growth Rate (Fibroblast; 18 h, replicate number 1): 0.38
Growth Rate (Fibroblast; 18 h, replicate number 2): 0.7
Growth Rate (Fibroblast; 24 h, replicate number 1): 0.22
Growth Rate (Fibroblast; 24 h, replicate number 2): 0.64
Growth Rate (U2OS; 12 h, replicate number 1): 0.7
Growth Rate (U2OS; 12 h, replicate number 2): 0.8
Growth Rate (U2OS; 18 h, replicate number 1): 0.49
Growth Rate (U2OS; 18 h, replicate number 2): 0.82
Growth Rate (U2OS; 24 h, replicate number 1): 0.51
Growth Rate (U2OS; 24 h, replicate number 2): 0.72

CNCc1ccc(-c2cc(-c3nc(-c4ccc(S(=O)(=O)C(C)C)cc4)cnc3N)on2)cc1 [BERZOSERTIB]
Growth Rate (HEK-293T; 0 h, replicate number 2): -0.99
Growth Rate (HEK-293T; 6 h, replicate number 1): -0.67
Growth Rate (HEK-293T; 6 h, replicate number 2): -0.05
Growth Rate (HEK-293T; 12 h, replicate number 1): -0.49
Growth Rate (HEK-293T; 12 h, replicate number 2): -0.51
Growth Rate (HEK-293T; 18 h, replicate number 1): -0.3
Growth Rate (HEK-293T; 18 h, replicate number 2): -0.38
Growth Rate (HEK-293T; 24 h, replicate number 1): -0.24
Growth Rate (HEK-293T; 24 h, replicate number 2): -0.26
Growth Rate (Fibroblast; 0 h, replicate number 1): -1
Growth Rate (Fibroblast; 12 h, replicate number 2): 0.24
Growth Rate (Fibroblast; 18 h, replicate number 1): 0.32
Growth Rate (Fibroblast; 18 h, replicate number 2): -0.14
Growth Rate (Fibroblast; 24 h, replicate number 1): -0.05
Growth Rate (Fibroblast; 24 h, replicate number 2): -0.29
Growth Rate (U2OS; 0 h, replicate number 1): -1
Growth Rate (U2OS; 12 h, replicate number 1): -0.83
Growth Rate (U2OS; 12 h, replicate number 2): 0.45
Growth Rate (U2OS; 18 h, replicate number 1): 0.15
Growth Rate (U2OS; 18 h, replicate number 2): 0.23
Growth Rate (U2OS; 24 h, replicate number 1): 0.31
Growth Rate (U2OS; 24 h, replicate number 2): 0.19
